Several values for one entry are separate records, joined by “and”; a condition that tells them apart may be missing. Identical values can stand only once. Like-named read-outs stand apart in the source and are kept apart here.
Columns and labels:
[1] = Plasma pharmacokinetics of metformin in rats after a single oral dose, alone or with olaparib (HPLC-UV, non-compartmental); format: in vivo, Wistar rats; conditions: for Cmax / k el: po; for Cmax / k el / Cl/F / ka / t0.5: rat plasma, n = 8, mean ± SD
Experimental: Adult male Wistar rats (weight 380–530 g) were used in the study. The animals were maintained under standard breeding conditions with a 12/12 h light–dark cycle (lights on at 06.00, lights off at 18.00) at constant room temperature (23 ± 2 °C), relative humidity of 55 ± 10% and given ad libitum access to food and water. The animals were allowed to acclimatize for a week before the beginning of the experiments. The rats were divided into three groups. […] The solution for oral metformin administration was prepared in saline at a single dose of 100 mg/kg [15]. Drugs were orally administered to rats by gavage between 7:00 a.m. and 8:00 a.m. Before administration (0 h) and at different time intervals after the administration, i.e., 0.085, 0.5, 1, 2, 4, 6, 8, 10, and 24 h [16], blood was collected from the tail vein of each rat into 1.5-ml heparinized Eppendorf (EP) tubes. The blood samples were centrifuged at 5000 rpm for 10 min, and the plasma was transferred to new centrifuge tubes and then stored at – 80 °C.
High-performance liquid chromatography (HPLC) with ultraviolet (UV) detection (HPLC Waters 2695 Separations Module with autosampler, Waters 2487 Dual Absorbance Detector) [17] after a liquid–liquid extraction with a mixture of 1-butanol:n-heptane (50:50, v/v) was applied to measure the concentrations of metformin in the rats’ plasma. An analytical Symmetry® C8 column (250 × 4.6 mm, 5.0 μm; Waters Corporation, Milford, MA, USA) and a mobile phase consisting of 0.1 M ammonium formate solution, pH 6.3 with an isocratic flow rate of 1.0 ml/min were used. The volume of each injection was 20 µl, and the retention times for metformin and internal standard (acetaminophen) were 3.5 and 11.2 min, respectively.
The maximum plasma concentration (Cmax) and the time to reach the Cmax (tmax) were obtained directly from the measured values. All of the above-mentioned parameters underwent statistical analysis.

[2] = test system: epithelial ovarian cancer cell lines; conditions: drugs given separately or co-administered; cited from earlier work
[3] = male, Wistar, rat, plasma, 100 mg/kg, IIMET: metformin 100 mg/kg b.w. oral single dose alone
[4] = male, Wistar, rat, plasma, 100 mg/kg, IMET+OLA: metformin 100 mg/kg b.w. + olaparib 100 mg/kg b.w. oral single dose
[5] = metformin, rats, with olaparib / alone
[6] = IIMET: metformin 100 mg/kg b.w. oral single dose alone
[7] = IMET+OLA: metformin 100 mg/kg b.w. + olaparib 100 mg/kg b.w. oral single dose
[8] = rats, co-administered with olaparib vs. metformin alone
[9] = rats, concomitant olaparib and metformin

concentration at 0.083 h ([1]; male, Wistar, rat, plasma, oral, 100 mg/kg, t 0.083 h, IIMET (metformin alone), group mean, read-out: Cmet, S (group mean)): 0.146 µg/mL
concentration at 1 h ([1]; male, Wistar, rat, plasma, oral, 100 mg/kg, t 1 h, IIMET (metformin alone), group mean, read-out: Cmet, S (group mean)): 0.397 µg/mL
concentration at 2 h ([1]; male, Wistar, rat, plasma, oral, 100 mg/kg, t 2 h, IIMET (metformin alone), group mean, read-out: Cmet, S (group mean)): 0.285 µg/mL
concentration at 6 h ([1]; male, Wistar, rat, plasma, oral, 100 mg/kg, t 6 h, IIMET (metformin alone), group mean, read-out: Cmet, S (group mean)): 0.156 µg/mL
concentration at 8 h ([1]; male, Wistar, rat, plasma, oral, 100 mg/kg, t 8 h, IIMET (metformin alone), group mean, read-out: Cmet, S (group mean)): 0.163 µg/mL
concentration at 10 h ([1]; male, Wistar, rat, plasma, oral, 100 mg/kg, t 10 h, IIMET (metformin alone), group mean, read-out: Cmet, S (group mean)): 0.133 µg/mL
concentration at 24 h ([1]; male, Wistar, rat, plasma, oral, 100 mg/kg, t 24 h, IIMET (metformin alone), group mean, read-out: Cmet, S (group mean)): 0.112 µg/mL
concentration at 0.083 h ([1]; male, Wistar, rat, plasma, oral, t 0.083 h, IMET+OLA (metformin and olaparib), group mean, read-out: Cmet, S (group mean)): 0.14 µg/mL
concentration at 0.5 h ([1]; male, Wistar, rat, plasma, oral, t 0.5 h, IMET+OLA (metformin and olaparib), group mean, read-out: Cmet, S (group mean)): 0.59 µg/mL
concentration at 1 h ([1]; male, Wistar, rat, plasma, oral, t 1 h, IMET+OLA (metformin and olaparib), group mean, read-out: Cmet, S (group mean)): 0.968 µg/mL
concentration at 2 h ([1]; male, Wistar, rat, plasma, oral, t 2 h, IMET+OLA (metformin and olaparib), group mean, read-out: Cmet, S (group mean)): 0.858 µg/mL
concentration at 4 h ([1]; male, Wistar, rat, plasma, oral, t 4 h, IMET+OLA (metformin and olaparib), group mean, read-out: Cmet, S (group mean)): 0.734 µg/mL
concentration at 6 h ([1]; male, Wistar, rat, plasma, oral, t 6 h, IMET+OLA (metformin and olaparib), group mean, read-out: Cmet, S (group mean)): 0.627 µg/mL
concentration at 10 h ([1]; male, Wistar, rat, plasma, oral, t 10 h, IMET+OLA (metformin and olaparib), group mean, read-out: Cmet, S (group mean)): 0.334 µg/mL
concentration at 24 h ([1]; male, Wistar, rat, plasma, oral, t 24 h, IMET+OLA (metformin and olaparib), group mean, read-out: Cmet, S (group mean)): 0.182 µg/mL
Cmax [1, 3]: 0.45 ± 0.29 µg/mL
k el [1, 3]: 8.89e-06 s⁻¹
Cmax [1, 4]: 1.25 ± 0.8 µg/mL
k el [1, 4]: 1.5e-05 s⁻¹
IMET+OLA/IIMET ratio for AUC0-t [1, 5]: 2.59
IMET+OLA/IIMET ratio for AUC0→∞ [1, 5]: 1.74
IMET+OLA/IIMET ratio for Cmax [1, 5]: 2.78
ka [1, 6]: 0.41 ± 0.25 (62.4) h^−1
t0.5 [1, 6]: 26.54 ± 14.52 (54.7) h
ka [1, 7]: 0.59 ± 0.17 (29.7) h^−1
t0.5 [1, 7]: 14.95 ± 6.04 (40.4) h
decrease of metformin Cl/F in the presence of olaparib [1, 8]: 43.4%
decrease of metformin Vd/F in the presence of olaparib [1, 8]: 65.1%
increase of metformin AUC0-t when co-administered with olaparib [1, 8]: 159.8%
increase of metformin AUC0-∞ when co-administered with olaparib [1, 8]: 74.1%
increase of metformin Cmax in the presence of olaparib [1, 8]: 177.8%
increase of metformin AUC on concomitant olaparib [1, 9]: 2.6 times
increase of metformin Cmax on concomitant olaparib [1, 9]: 2.8 times
Structure (SMILES): CN(C)C(=N)N=C(N)N [metformin, Metformin]
Cl/F [1, 6]: 6.31 ± 1.48 l/h and 6.31 ± 1.48 (23.5) l/h
Cl/F [1, 7]: 3.57 ± 1.26 l/h and 3.57 ± 1.26 (35.34) l/h
Cmet ([1]; t 0.083 h, IIMET (metformin alone), individual rats 17-24): 0.139 µg/mL and 0.07 µg/mL and 0.274 µg/mL and 0.12 µg/mL and 0.149 µg/mL and 0.135 µg/mL and 0.136 µg/mL and 0.145 µg/mL
Cmet ([1]; t 0.5 h, IIMET (metformin alone), individual rats 17-24): 0.153 µg/mL and 0.15 µg/mL and 0.313 µg/mL and 0.434 µg/mL and 0.58 µg/mL and 0.179 µg/mL and 0.143 µg/mL and 0.118 µg/mL
Cmet ([1]; t 0.5 h, IMET+OLA (metformin and olaparib), individual rats 9-16): 0.305 µg/mL and 0.586 µg/mL and 0.526 µg/mL and 1.222 µg/mL and 0.663 µg/mL and 0.324 µg/mL and 0.506 µg/mL
Cmet ([1]; t 1 h, IIMET (metformin alone), individual rats 17-24): 0.174 µg/mL and 0.18 µg/mL and 1.014 µg/mL and 0.544 µg/mL and 0.499 µg/mL and 0.32 µg/mL and 0.159 µg/mL and 0.287 µg/mL
Cmet ([1]; t 1 h, IMET+OLA (metformin and olaparib), individual rats 9-16): 0.543 µg/mL and 0.726 µg/mL and 0.856 µg/mL and 1.358 µg/mL and 0.97 µg/mL and 2.359 µg/mL and 0.185 µg/mL and 0.747 µg/mL
Cmet ([1]; t 2 h, IIMET (metformin alone), individual rats 17-24): 0.23 µg/mL and 0.17 µg/mL and 0.418 µg/mL and 0.681 µg/mL and 0.209 µg/mL and 0.126 µg/mL and 0.165 µg/mL and 0.28 µg/mL
Cmet ([1]; t 2 h, IMET+OLA (metformin and olaparib), individual rats 9-16): 0.528 µg/mL and 0.55 µg/mL and 1.159 µg/mL and 2.443 µg/mL and 1.095 µg/mL and 0.402 µg/mL and 0.242 µg/mL and 0.446 µg/mL
Cmet ([1]; t 4 h, IIMET (metformin alone), individual rats 17-24): 0.113 µg/mL and 0.13 µg/mL and 0.27 µg/mL and 0.646 µg/mL and 0.162 µg/mL
Cmet ([1]; t 4 h, IMET+OLA (metformin and olaparib), individual rats 9-16): 0.578 µg/mL and 0.585 µg/mL and 1.642 µg/mL and 1.111 µg/mL and 0.694 µg/mL and 0.502 µg/mL and 0.361 µg/mL and 0.396 µg/mL
Cmet ([1]; t 6 h, IMET+OLA (metformin and olaparib), individual rats 9-16): 0.469 µg/mL and 0.284 µg/mL and 1.584 µg/mL and 1.082 µg/mL and 0.494 µg/mL and 0.321 µg/mL and 0.41 µg/mL and 0.368 µg/mL
Cmet ([1]; t 8 h, IMET+OLA (metformin and olaparib), individual rats 9-16): 0.57 µg/mL and 0.234 µg/mL and 1.165 µg/mL and 0.793 µg/mL and 0.485 µg/mL and 0.275 µg/mL and 0.247 µg/mL and 0.287 µg/mL
Cmet ([1]; t 10 h, IMET+OLA (metformin and olaparib), individual rats 9-16): 0.281 ug/ml and 0.155 ug/ml and 0.738 ug/ml and 0.33 ug/ml and 0.444 ug/ml and 0.268 ug/ml (2×) and 0.186 ug/ml
Cmet ([1]; t 24 h, IMET+OLA (metformin and olaparib), individual rats 9-16): 0.133 µg/mL and 0.13 µg/mL and 0.334 µg/mL and 0.18 µg/mL and 0.236 µg/mL and 0.141 µg/mL and 0.117 µg/mL and 0.187 µg/mL
percentage of late apoptotic cells [2]: 8.2%

— publication PMC10796410 (Cancer Chemotherapy and Pharmacology, 2023)
